Results: patent publication US20260109721A1, “IONIZABLE CATIONIC LIPIDS INCORPORATING SILICON: SYNTHESIS AND LNP FORMULATION” (priority 2023, published 2026)

Tests used:
HeLa cells = experiment: Transfection efficiency with Luciferase (SecNLuc) mRNA, Nano-Glo assay (Method A); format: cell-based; details: Luc mRNA, 24 h, luminescence; for Transfection 10 ng mRNA: 10 ng mRNA/well; for Transfection 50 ng mRNA: 50 ng mRNA/well; for Transfection 100 ng mRNA: 100 ng mRNA/well
Description: (§1) The synthesized lipids were tested in term of in vitro transfection efficacy and toxicity on HeLa cells. In order to perform the mentioned biological tests, appropriate LNPs had to be formulated from the synthesized lipids. The formulation technique was different in Method A and B. The particle size, polydispersity index (PDI) and zeta potential of resulting LNPs were determined by means of Dynamic Light Scattering technique (DLS). Prior to biological testing the encapsulation efficiency (EE) of the loaded LNPs was determined by using RiboGreen RNA assay. In case of Method A Luc mRNA while in case of Method B GFP mRNA was transfected into the cells. In parallel with the transfection experiments, toxicity of the investigated LNPs was determined, in case of Method A resazurin assay while in case of Method B MTT assay was used. Additionally, the toxicity of the lipids was investigated on HepG2 cells and IC50 values were determined.
• 1. Prepare mRNA solution by adding 100 ng mRNA (SecNLuc, #P009024, RiboPro) to 5 μl Opti-MEM • multiply by number of wells, include different concentrations and add 10% extra • a standard set-up we use is 100 ng-50 ng-10 ng mRNA/well in triplicate, which would need […] mRNA (includes 10% extra)
• 2. (If applicable) Prepare different concentrations in Opti-MEM (for instance 100/50/10 ng). • 3. Add 10 μl to each well and mix carefully by pipetting. • 4. Mix by swirling the plate horizontally at modest speed. Reverse in direction 3 times. • 5. Incubate for 24 hours (incubator).
This protocol is applied to measure luciferase activity for secreted NanoLuc and is based on the protocol by Promega (Nano-Glo® Luciferase Assay System #N1110-1150). The protocol is designed for a 384-wells plate, but volumes can be changed accordingly for other plates.
• 1. Plate cells (HeLa) in 96-well plate, grow until 80% confluent and transfect with SecNanoLuc mRNA and incubate for the desired period (24 h). • 2. After incubation, the translated protein is accumulated in the medium. Transfer medium to a new plate or tubes. • 3. Transfer 12 μl of each sample to a black-walled, clear-bottom 384-well plate • Black-walled plates are important to prevent shine-through of luminescence from other wells; alternatively, multiple wells between samples can be left empty. • 4. Set-up plate reader • 5. Prepare the desired amount of Nano-Glo® Luciferase Assay Reagent by combining one volume of Nano-Glo® Luciferase Assay Substrate with 50 volumes of Nano-Glo® Luciferase Assay Buffer: • a. composition: 100 mM MES pH 6; 1 mM EDTA; […]; 150 mM KCl; 1 mM DTT; 35 mM Thiourea; • b. briefly spin tubes containing substrate in a microcentrifuge before use. • 6. Add and mix (by pipetting) 12 μl Nano-Glo® Luciferase Assay Reagent per well • Wait approximately 3 minutes before measuring luminescence. […] Measure luminescence in plate reader using standard protocol luciferase (this includes mixing sample in plate reader)

[1] = LNP size, PDI and zeta potential by Dynamic Light Scattering (Method A); format: physicochemical; details: LNP formulated with the lipid, DLS
Description: as §1
• 1. If needed, prepare stock solutions by solving known amounts of lipid powder into an appropriate solvent. The recommended solvent is ethanol and the recommended concentration is typically in the range 10-50 mM. Higher concentrations are preferred to allow flexibility on mRNA-LNP concentration. • 2. Remove the lipid stock solutions from the −20° C. freezer. For long-term storage, −80° C. is used. • 3. Check the vials for precipitation, DOPE (CAS #4004-05-1) (20 mM) and DSPE-PEG (CAS #474922-26-4) (5 mM) may need a 5-30 minute incubation step at 37° C. with intermittent vortexing to resuspend all contents. […] As a last resort, lipids may be heated to 50° C. to resuspend, time should be kept as short as possible to prevent oxidation or other modifying or degradative processes. • 4. Mix the lipids by vortexing for 2 minutes. • 5. […] Cooling the solution prevent excessive evaporation of ethanol or similar solvents upon opening. • 6. Meanwhile, thaw the RNA samples, including the latest SecNLuc control, by inserting the frozen tube in a room temperature aluminium block. • 7. Prepare for each LNP-formulation with identical mRNA component, an RNA master mix according to Table 1 below in a fresh tube. Use of a master mix allows more precise comparison of lipid formulations relative to each other. Split the master mix over a number of fresh tubes equal to the number of samples+controls. Each tube contains 375 μl of mRNA in 10 mM Citrate pH 4.0. • 8. Prepare for each LNP formulation with identical lipid composition a Lipid master mix according to Table 1 below in a fresh tube, exclude the lipid of interest. Use of a master mix allows more precise comparison of the novel ionizable lipid relative to each other. Split the master mix over a number of fresh tubes equal to the number of samples+controls. Each tube contains 65.5 μl of lipid master mix. • 9. Add the ionizable lipid of interest to the equally divide lipid master mix. Mix well by pipetting up and down. Label the tube according to the ionizable lipid used. • 10. Power on the L1 FM (L1 Formulation Machine uses 2 high-speed syringe pumps to mix lipids in organic solvents with mRNA in acidic aquous solution to generate well-defined LNPs. The microfluidic mixing chip involves a dean-type structure performing the high-efficiency mixing at a total flow rate (TFR) of around 12 ml/min at a 3:1 mixing ratio) and allow it to do a calibration of motor positions.
• 18. Fill a fresh syringe (C) through a blunt 18G stainless steel needle with the previously prepared RNA mixture of step 6. The volume should be approximately 85% of total formulation volume+25 μl (dead-volume). Make sure to remove all air bubbles by tapping. • 19. Fill a fresh syringe (D) through a blunt 18G stainless steel needle with the Lipid master mix. The volume should be approximately […] of total formulation volume+25 μl (dead-volume). Again, Make sure to remove all bubbles. • 20. Attach the syringes in the correct orientation, syringe A on the left and syringe B on the right • 21.

SMILES | Transfection 10 ng mRNA (HeLa cells) | Transfection 50 ng mRNA (HeLa cells) | Transfection 100 ng mRNA (HeLa cells) | PDI [1] | Size (nm) [1] [nm] | Zeta potential (mV) [1] [mV]
CCCCC/C=C\C/C=C\CCCCCCCC(OCCCCCCCCCCCCCCCC)O[Si](C)(C)OCCCCCCN(CCO)CCO (centres unmarked) [Example 44, 13-((8Z,11Z)-heptadeca-8,11-dien-1-yl)-3-(2-hydroxyethyl)-11,11-dimethyl-10,12,14-trioxa-3-aza-11-silatriacontan-1-ol] | 1.57E+05 | 2.08E+06 | 7.09E+06 | 0.083 | 131.2 | −8.273
CCCCC/C=C\C/C=C\CCCCCCCCOC(CCCCCCC/C=C\CCCCCCCC)O[Si](C)(C)OCCCCCCN(CCO)CCO (centres unmarked) [Example 46, (23Z,26Z)-13-((Z)-heptadec-8-en-1-yl)-3-(2-hydroxyethyl)-11,11-dimethyl-10,12,14-trioxa-3-aza-11-siladotriaconta-23,26-dien-1-ol] | 1.46E+05 | 1.93E+06 | 8.16E+06 | 0.095 | 129.4 | −7.772
CCCCC/C=C\C/C=C\CCCCCCCCOC(CCCCCCC/C=C\C/C=C\CCCCC)O[Si](C)(C)OCCCCCCN1CCOCC1 (centres unmarked) [Example 55, 4-((20Z,23Z)-10-((8Z,11Z)-heptadeca-8,11-dien-1-yl)-8,8-dimethyl-7,9,11-trioxa-8-silanonacosa-20,23-dien-1-yl)morpholine] | 1.32E+06 | 7.68E+06 | 1.03E+07 | 0.441 | 319.9 | −10.81
CCCCCCCC/C=C\CCCCCCCCOC(=O)C(C)(C)CC(OCCCCCCCC/C=C\CCCCCCCC)O[Si](C)(C)OCCCCCCN(C)CCCCO (centres unmarked) [Example 91, (Z)-octadec-9-en-1-yl 18-hydroxy-2,2,6,6,14-pentamethyl-4-(((Z)-octadec-9-en-1-yl)oxy)-5,7-dioxa-14-aza-6-silaoctadecanoate] | 7.02E+03 | 1.13E+05 | 7.45E+05 | 0.17 | 85.49 | −15.27
CCCCC/C=C\C/C=C\CCCCCCCCOC(CCCCCN(C)CC(O)CO)O[Si](C)(C)OCCCCCCCC/C=C\C/C=C\CCCCC (centres unmarked) [Example 66, (22Z,25Z)-4,12,12-trimethyl-10-(((9Z,12Z)-octadeca-9,12-dien-1-yl)oxy)-11,13-dioxa-4-aza-12-silahentriaconta-22,25-diene-1,2-diol] | 1.06E+05 | 1.14E+06 | 3.31E+06 | 0.043 | 223.6 | −11.66
CCCCC/C=C\C/C=C\CCCCCCCCOC(CCCCCCCCCCCCCCC)O[Si](C)(C)OCCCCCCN(CCO)CCO (centres unmarked) [Example 43, (23Z,26Z)-3-(2-hydroxyethyl)-11,11-dimethyl-13-pentadecyl-10,12,14-trioxa-3-aza-11-siladotriaconta-23,26-dien-1-ol] | 4.81E+05 | 5.50E+06 | 1.32E+07 | 0.006 | 144.9 | −7.944
CCCCCCCC/C=C\CCCCCCCCOC(=O)C(C)(C)CC(OCCCCCCCC/C=C\CCCCCCCC)O[Si](C)(C)OCCCCCCN1CCCC1CO (centres unmarked) [Example 90, (Z)-octadec-9-en-1-yl 4-((((6-(2-(hydroxymethyl)pyrrolidin-1-yl)hexyl)oxy)dimethylsilyl)oxy)-2,2-dimethyl-4-(((Z)-octadec-9-en-1-yl)oxy)butanoate] | 2.84E+04 | 1.06E+06 | 4.86E+06 | 0.14 | 100.2 | −16.19
CCCCCCCCC(CCCCCC)C(=O)OCCCCCCN(CCCCO)CCCCCCOC(=O)C(CCCCCC)CCCCCCCC (centres unmarked) [ALC-0315, reference compound] | 2.38E+06 | 1.22E+07 | 9.34E+06 | 0.007 | 131.9 | −12.32
CCCCC/C=C\C/C=C\CCCCCCCCOC(CCCCCCC/C=C\C/C=C\CCCCC)O[Si](C)(C)OCCCCCCN(C)CC(O)CO (centres unmarked) [Example 59, (24Z,27Z)-14-((8Z,11Z)-heptadeca-8,11-dien-1-yl)-4,12,12-trimethyl-11,13,15-trioxa-4-aza-12-silatritriaconta-24,27-diene-1,2-diol] | 9.07E+03 | 2.41E+05 | 5.66E+05 | 0.105 | 112.8 | −8.941
CCCCC/C=C\C/C=C\CCCCCCCCOC(CCCCCCC/C=C\C/C=C\CCCCC)O[Si](C)(C)OCCCCCCN(C)[C@H](CO)Cc1ccccc1 (stereo partly drawn) [Example 77, (2S,23Z,26Z)-2-benzyl-13-((8Z,11Z)-heptadeca-8,11-dien-1-yl)-3,11,11-trimethyl-10,12,14-trioxa-3-aza-11-siladotriaconta-23,26-dien-1-ol] | 3.44E+02 | 2.55E+03 | 6.09E+03 | 0.05 | 90.59 | −10.95
CCCCCCCCCCCOC(=O)CCCCCN(CCO)CCCCCCCC(=O)OC(CCCCCCCC)CCCCCCCC [SM-102, reference compound] | 2.15E+06 | 7.53E+06 | 7.61E+06 | – | 77.03 | −5.03
